From US10189796B2, “[4-(1,3,3-trimethyl-2-oxo-3,4-dihydro-1H-quinoxalin-7-yl)phenoxy]ethyloxy compound or salt thereof” (SANTEN PHARMACEUTICAL CO., LTD., priority 2015, dated 2019)

Assays:
[1] = test system: IL-4 production in normal human CD4+T cell; assay: IL-4 production inhibitory action evaluation test (anti-CD3/CD28 antibody stimulation, ELISA); type: cell-based; settings: anti-CD3/CD28, 24 hours, read-out: IL-4 production inhibitory ratio (% of 1 μM)
Protocol: In order to evaluate an action of the present compound as a GR agonist, IL-2 and IL-4 production inhibitory actions in a normal human CD4^+T cell after stimulation by an anti-CD3/CD28 antibody were investigated. For the measurement of the IL-2 and IL-4 production amounts, the ELISA method (manufactured by R&D Systems, Cat No. D2050, HS400) was used, and a procedure was carried out according to the protocol attached thereto. Hereinafter, the specific method will be described.
Dynabeads (Registered Trademark) Human T-Activator CD3/CD28 (4×10^7 beads/mL) (Dynabeads) was used, and prepared according to the protocol attached thereto.
After the test compound was dissolved in dimethylsulfoxide, the solution was diluted with an RPMI medium to prepare 400 μM of a test compound solution. The solution was diluted with a 4% dimethylsulfoxide-containing RPMI medium to prepare 40 μM of a test compound solution.
Used cells: normal peripheral blood human CD4^+T cell (human CD4^+T cell) (Lonza)
• 1) Frozen human CD4^+T cells were thawed in a warm water bath at 37° C., and added to an RPMI medium (RPMI 1640 containing 10% FBS, 100 U/mL of Penicillin, and […] of Streptomycin). • 2) The above suspension was recovered and centrifuged at 900 rpm for 10 minutes to give a cell sediment. • 3) The cell sediment was suspended in an RPMI medium and the operation of 2) was carried out. • 4) The cell sediment was adjusted to 4×10^5 cells/mL with an RPMI medium. • 5) The above suspension was cultured in a CO2 incubator (temperature: 37° C., CO2 concentration: 5%) for 1 hour or longer. (Test Method and Measurement Method) • 1) The cultured human CD4^+T cells were recovered and the cells were seeded in 96-well flat bottom culture plates at each 8.0×10^4 cells/0.2 mL/well. • 2) The test compound solution was added with each 5 μL/well. • 3) The prepared Dynabeads were added with each 2 μL/well. • 4) The sample in which 4% dimethylsulfoxide-containing RPMI medium was added with each 5 μL/well in place of each test compound solution, and the RPMI medium was added with each 2 μL/well in place of the Dynabeads was made a negative control. • 5) The sample in which 4% dimethylsulfoxide-containing RPMI medium was added with each 5 μL/well in place of each test compound solution was made a positive control. • 6) After completion of 24 hours cultivation, the supernatant was recovered and the amounts of IL-2 and IL-4 released in the supernatant was measured by using an ELISA Kit. • 7) The IL-2 and IL-4 production inhibitory ratios were calculated according to the following calculation formula. (Calculation of IL-2 and IL-4 Production Inhibitory Ratios)
The IL-2 and IL-4 production inhibitory ratios (%) were calculated by the following formula, respectively. IL-2 or IL-4 production inhibitory ratio (%)=100×{1−(IL-2 or IL-4 production amounts of each test compound solution−average value of IL-2 or IL-4 production amount of negative control group)/(average value of IL-2 or IL-4 production amount of positive control group−average value of IL-2 or IL-4 production amount of negative control group)}(%) (Test Result and Consideration)

Recombinant human GR = Recombinant human GR (Homo sapiens (Human), UniProt P04150); assay: GR competitive binding assay by fluorescence polarization; settings: 20 μM test compound solution, 10 μL/well; 2 hours; DEX positive control; read-out: GR binding rate (%)
Chain of Recombinant human GR (P04150 whole entry): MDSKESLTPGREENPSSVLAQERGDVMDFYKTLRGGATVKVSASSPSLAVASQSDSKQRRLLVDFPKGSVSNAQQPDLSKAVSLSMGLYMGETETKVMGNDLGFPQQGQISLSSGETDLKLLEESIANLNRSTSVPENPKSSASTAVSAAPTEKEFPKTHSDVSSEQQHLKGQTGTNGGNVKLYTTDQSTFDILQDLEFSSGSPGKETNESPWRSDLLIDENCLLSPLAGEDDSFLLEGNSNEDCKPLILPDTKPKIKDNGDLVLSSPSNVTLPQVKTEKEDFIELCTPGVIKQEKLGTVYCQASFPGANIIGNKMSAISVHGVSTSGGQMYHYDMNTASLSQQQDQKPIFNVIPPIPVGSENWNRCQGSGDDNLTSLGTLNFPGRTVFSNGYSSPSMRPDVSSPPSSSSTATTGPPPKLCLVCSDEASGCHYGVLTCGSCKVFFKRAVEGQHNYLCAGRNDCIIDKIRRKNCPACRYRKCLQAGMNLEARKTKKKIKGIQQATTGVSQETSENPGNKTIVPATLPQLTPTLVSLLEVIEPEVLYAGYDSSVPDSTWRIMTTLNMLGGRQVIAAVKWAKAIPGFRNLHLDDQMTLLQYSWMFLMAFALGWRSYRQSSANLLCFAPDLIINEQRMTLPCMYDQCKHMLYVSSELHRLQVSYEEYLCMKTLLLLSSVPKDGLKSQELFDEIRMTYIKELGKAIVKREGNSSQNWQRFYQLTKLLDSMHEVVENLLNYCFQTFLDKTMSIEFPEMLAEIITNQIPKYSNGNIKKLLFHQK
Method in brief: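 Fluorescence polarization competition between test compound and Fluormone GS1 fluorescent glucocorticoid ligand for recombinant human GR. Buffer 10 mM potassium phosphate pH 7.4, 20 mM Na2MoO4, 0.1 mM EDTA, 5 mM DTT, 2% DMSO. 2 h dark incubation at room temperature; binding ratio (%) scaled between buffer-only and DEX controls.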

| inhibition at 10 µM (Recombinant human GR) | Compound | inhibition at 1 µM [1] |
| --- | --- | --- |
| 98% | CCCC(=O)Oc1ccc(-c2ccc3c(c2COc2cc(F)ccc2C)N(C)C(=O)C(C)(C)N3)c(OC)c1 [Control compound D, 7-(4-butyryloxy-2-methoxyphenyl)-8-(5-fluoro-2-methylphenoxymethyl)-1,3,3-trimethyl-3,4-dihydro-1H-quinoxalin-2-one, reference compound] | 46% |
| > 99% | COc1cc(OC[C@@H](O)CCO)ccc1-c1ccc2c(c1COc1cc(F)ccc1C)N(C)C(=O)C(C)(C)N2 [Compound 2-1, (S)-7-[4-(2,4-dihydroxybutyl)oxy-2-methoxyphenyl]-8-(5-fluoro-2-methyl-phenoxymethyl)-1,3,3-trimethyl-3,4-dihydro-1H-quinoxalin-2-one] | 83% |
| 98% | COc1ccc(-c2ccc3c(c2COc2cc(F)ccc2C)N(C)C(=O)C(C)(C)N3)c(OC)c1 [Control compound E, 7-(2,4-dimethoxyphenyl)-8-(5-fluoro-2-methyl-phenoxymethyl)-1,3,3-trimethyl-3,4-dihydro-1H-quinoxalin-2-one, reference compound] | 32% |
| 94% | COCOc1ccc(-c2ccc3c(c2COc2cc(F)ccc2C)N(C)C(=O)C(C)(C)N3)c(OC)c1 [Control compound F, 8-(5-fluoro-2-methylphenoxymethyl)-7-(2-methoxy-4-methoxymethoxyphenyl)-1,3,3-trimethyl-3,4-dihydro-1H-quinoxalin-2-one, reference compound] | 29% |
| > 99% | COc1cc(OC[C@H](C)O)ccc1-c1ccc2c(c1COc1cc(F)ccc1C)N(C)C(=O)C(C)(C)N2 [Compound 1-1, (S)-8-(5-fluoro-2-methylphenoxymethyl)-7-[4-(2-hydroxypropyl)oxy-2-methoxy-phenyl]-1,3,3-trimethyl-3,4-dihydro-1H-quinoxalin-2-one] | 91% |
| > 99% | COc1ccc(CO)cc1-c1ccc2c(c1COc1cc(F)ccc1C)N(C)C(=O)C(C)(C)N2 [Control compound B, 8-(5-fluoro-2-methylphenoxymethyl)-7-(5-hydroxymethyl-2-methoxyphenyl)-1,3,3-trimethyl-3,4-dihydro-1H-quinoxalin-2-one, reference compound] | 51% |

| Compound | inhibition at 10 µM (Recombinant human GR) | inhibition at 1 µM [1] |
| --- | --- | --- |
| COc1cc(OC[C@@H](O)CC#N)ccc1-c1ccc2c(c1COc1cc(F)ccc1C)N(C)C(=O)C(C)(C)N2 [Compound 5-2, (S)-7-[4-(3-cyano-2-hydroxypropyl)oxy-2-methoxyphenyl]-8-(5-fluoro-2-methyl-phenoxymethyl)-1,3,3-trimethyl-3,4-dihydro-1H-quinoxalin-2-one] | > 99% |  |
| COc1cc(OC[C@H](C)OC(=O)CN(C)C)ccc1-c1ccc2c(c1COc1cc(F)ccc1C)N(C)C(=O)C(C)(C)N2 [Compound 11-1, (S)-7-[4-[2-(N,N-dimethylaminoacetoxy)propyl]oxy-2-methoxyphenyl]-8-(5-fluoro-2-methylphenoxymethyl)-1,3,3-trimethyl-3,4-dihydro-1H-quinoxalin-2-one] | 99% | 87% |
| COc1ccc(O)cc1-c1ccc2c(c1COc1cc(F)ccc1C)N(C)C(=O)C(C)(C)N2 [Control compound C, 8-(5-fluoro-2-methylphenoxymethyl)-7-(5-hydroxy-2-methoxyphenyl)-1,3,3-trimethyl-3,4-dihydro-1H-quinoxalin-2-one] | > 99% | 56% |
